In brackets after ≈: the same amount, converted by molar mass.
Experiments:
[1] = Release from PLGA microspheres +/- EGCG or tannic acid; type: physicochemical; conditions: over a 10 days period
Description: Method: The method involved pipetting a solution of the polymer PLGA (usually 20% w/v) and drug (usually 5% w/w to polymer) and EGCG (e.g. 20% w/w/ to polymer) in dichlomethane (DCM) (5 ml) into 100 ml of 2.5% PVA solution in water stirring at 450 rpm. The suspension was left stirring for 2 hours and the microspheres washed 4 times in distilled water. The microspheres were then dried under vacuum for 2 days. Drug encapsulation was measured by dissolving a known weight of microspheres in 1 ml of dichloromethane followed by immediate dilution to 10 ml in 60:40 acetonitrile/water. The amount of drug or EGCG in the top and bottom phase of this solution was measured using HPLC methods (mobile phase 58:37:5 Acetonitrile:water:methanol. 1 ml per min flow on a c18 column with detection at 232 nm)
Tannic acid: An alternative method was used, termed a water-in oil-in water emulsion. […] This forms a primary emulsion of water droplets in the PLGA solution stabilized by Span. When this emulsion was pipetted into the PVA solution the microspheres formed well. […] The microspheres were a light brown in color indicative of tannic acid encapsulation.
Methods: In these studies, 10 mg of microspheres were suspended in 2 ml of phosphate buffered saline (pH 7.4 10 mM phosphate) in microcentrifuge tubes and tumbled at 8 rpm at 37° C. The tubes were then centrifuged at 12000×g and the supernatants collected for drug analysis by HPLC. 2 ml of fresh PBS was then placed on top of the microspheres which were returned to the 37° C. oven for continued incubation with tumbling.
At the end of the study the residual mass of polymer and drug was dissolved in DCM and drug extracted into 60:40 acetonitrile:water to measure residual drug. The amounts of residual drug were 89% for plga alone (at 31 days), 16% for EGCG and 8% for tannic acid (both at 51 days) as expressed as a % of the original loading.

[2] = Solubility of EGCG and tannic acid in propylene glycol and PEG 300
Description: EGCG and tannic acid are fairly soluble in alcohol and acetonitrile. […] These solutions become more viscous and paste-like as the percentage of gallate in solution is increased. When non-drug containing pastes were placed in water, the contents of the paste (gallate, PG or PEG), which are all water soluble, dissolved away.

[3] = Drug concentrations obtained using EGCG at 50 mg per ml (microscopic check for particulates); type: physicochemical; conditions: for Drug Concentration: 1 ml of water; for Particulates present: under a microscope
Description: EGCG at 50 mg/ml and drug at approximately 250 micrograms per ml were dissolved in the listed solvent and dried down in a test tube under nitrogen. 1 ml of water was added, followed by vortexing. The solutions were examined for particulate matter under a microscope. If no particulates were present, the process was repeated with a higher drug amount. All the tested drugs remained in solution at the listed concentrations except for nystatin and hesperidin.

[4] = Lidocaine release from propylene glycol:gallate pastes into PBS; type: physicochemical
Description: For each formulation, 100 mg of paste was placed in the base of a round bottomed 15 mL glass test tube. […] At the start of the release experiment, 10 ml of PBS was added and the tubes left for various time periods, after which all 10 mL of the release media was removed for drug analysis. The residual mass was observed from the top, and the drop in diameter from 8 mm noted as a semi-quantitative assessed of paste pellet degradation. It was not possible to measure the degradation fully quantitatively at that time, as the pellets were fragile and water-swollen. After a few days the pellets became less fragile, and were removed from the tubes and dried on tissue paper before weighing. The drop in weight from 100 mg was then noted as the % degradation and compared with the visual observations.

[5] = Solubility of drug in EGCG or tannic acid solutions (dried down, PBS or water added, 0.22 micron filtered, HPLC or absorbance)
pig skin = tested on: pig skin
Description: Various gallate-containing drug formulations were prepared and applied to ex vivo pig skin samples. Fresh pig skin was obtained from a local butcher, processed within three hours and then frozen. For experiments, the skin was slowly thawed, excess fat removed from the base, and cut into 1×2 cm squares. These squares were mounted and clamped on Franz diffusion cells, which kept the tissue moist and isolated and exposed a 6 mm diameter of the upper skin surface for the application of a drug loaded formulation. Skin samples were then frozen and later cryosectioned in 50 μm slices. The drug in the slices was extracted and measured by HPLC or radioactive doping methods. A drug depth profile was then established for each drug.
1. Formulations containing a drug and a gallate. The drugs were dissolved in ethanol at various concentrations along with either EGCG or TA (500 mg/mL). Each solution was pipetted into 6×5 mm diameter aluminum cups (approximately 3 mm in height) by filling and allowing the ethanol to evaporate at 50° C. until all the solution was used up (80 mg per cup).
2. Formulations containing a drug, propylene glycol (“PG”) and a gallate. 300 mg of propylene glycol was mixed with 200 mg of EGCG or TA until dissolved. Various amounts of drug were added to this mixture and dissolved. 80 mg of the resulting viscous solution was weighed into 6×5 mm aluminum cups.
3. Control Formulations. Control formulations were prepared using Glaxal base and Plogel. Glaxal base is a cream used by compounding pharmacists to manufacture topical formulations of drugs. Plogel is an alternative used for dermal formulations. […] Drug was added to a known weight of Glaxal or Plogel and levigated to produce a standard drug dispersion. These formulations were prepared the evening before the experiment. For some drugs, radioactive drug (where available) was also added as a doping additive to facilitate quantitation in tissues.
Eutectics: In some cases, gallate containing compounds and drugs were formulated in eutectic mixtures. These included a 60:40 (% w/w) mixture of menthol with ibuprofen. These agents acted as a carrier for retinoic acid, which was then dissolved in this liquid. The 3-drug eutectic/solution was then blended into the CMC/poloxamer emulsion containing EGCG (2.5%). […] The emulsion was stabilized with poloxamer.
Example 29. Pig skin studies. Aluminum cups containing drug formulations were inverted on top of the pig skin in the Franz diffusion cell so that the formulation contents were in contact with the skin. […]
Analysis. […] The amount of drug in each group of skin sections was then determined using HPLC methods, or by radioactivity counting on a liquid scintillation counter. The amount of drug in each group of skin sections was expressed as μg/g or mg/g of tissue.

Structure (SMILES)	Visual appearance [3]	Drug Concentration [3] [microgram/ml]	Particulates present [3]	further results
O=C(O[C@@H]1Cc2c(O)cc(O)cc2O[C@@H]1c1cc(O)c(O)c(O)c1)c1cc(O)c(O)c(O)c1 [EGCG, epi gallo catechin gallate]				release of EGCG or Tannic acid from PLGA microspheres [1]: approximately 45%; solubility in PEG 300 liquid [2]: 25 % w/w; solubility in propylene glycol [2]: higher than 50 % w/w
CC(C)(C)[C@]1(O)CC2OC(=O)CC23C(=O)OC2OC(=O)[C@H](O)C231 (some centres unmarked) [bilobalide]	clear solution	250	no	
CC[C@@]1(O)C(=O)OCc2c1cc1n(c2=O)Cc2cc3ccccc3nc2-1 [camptothecin]	clear	50	no	
CC1C(=O)OC2C(O)C34C5CC(C(C)(C)C)C36C(OC(=O)C6O)OC4(C(=O)O5)C12O (centres unmarked) [ginkgolide B]	clear solution	250	no	
COc1ccc([C@@H]2CC(=O)c3c(O)cc(O[C@@H]4O[C@H](CO[C@@H]5O[C@@H](C)[C@H](O)[C@@H](O)[C@H]5O)[C@@H](O)[C@H](O)[C@H]4O)cc3O2)cc1O [hesperedin]	almost clear	125	very	
COc1ccc([C@@H]2CC(=O)c3c(O)cc(O)cc3O2)cc1O [hesperetin]	clear solution	250	no	
COc1ccc2c(c1)c(CC(=O)O)c(C)n2C(=O)c1ccc(Cl)cc1 [indomethacin]	clear solution	250	no	
CCN(CC)CC(=O)Nc1c(C)cccc1C [lidocaine]				period of drug release ([4]; EGCG:propylene glycol pastes, 20% drug loading): 2-4 weeks; drug release ([4]; all EGCG:propylene glycol pastes, 5% drug loading, in approximately 2 days): ~100%; period of drug release ([4]; tannic acid:propylene glycol pastes, 5% drug loading): ~7 days; period of drug release ([4]; tannic acid:propylene glycol pastes, 20% drug loading): 4-5 weeks
C[C@@H]1[C@H](O)[C@@H](C)/C=C/C=C/CC/C=C/C=C/C=C/C=C/C(O[C@H]2O[C@H](C)[C@@H](O)[C@H](N)[C@@H]2O)CC2O[C@](O)(CC(O)C(O)CCC(O)CC(O)CC(O)CC(=O)O[C@H]1C)CC(O)C2C(=O)O (some centres unmarked) [nystatin]	clear solution	125	very	
CC1=CC(=O)c2c(O)cccc2C1=O [plumbagin]	clear	250	no	
O=c1c(O)c(-c2ccc(O)c(O)c2)oc2cc(O)cc(O)c12 [quercetin]	clear	250	no	
CO[C@H]1C[C@@H]2CC[C@@H](C)[C@@](O)(O2)C(=O)C(=O)N2CCCC[C@H]2C(=O)O[C@H]([C@H](C)C[C@@H]2CC[C@@H](O)[C@H](OC)C2)CC(=O)[C@H](C)/C=C(\C)[C@@H](O)[C@@H](OC)C(=O)[C@H](C)C[C@H](C)/C=C/C=C/C=C/1C [rapamycin]				solubility ([5]; EGCG solution (200 mg/ml) in PBS, aqueous with cosolvent or surfactant or cyclodextrin, thermodynamic from solid, drug concentration solubilised at maximum EGCG concentration, EGCG 200 mg per ml, PBS): ~300 µg/mL (≈ 328 µM); effect of temperature on solubility ([5]; EGCG solutions): little effect of temperature; stability of EGCG solutions of the drug ([5]; EGCG solutions, 24 hours): stable for 24 hours; solubility ([5]; tannic acid solution (500 mg/ml) in water, aqueous with cosolvent or surfactant or cyclodextrin, thermodynamic from solid, drug concentration solubilised at maximum tannic acid concentration, tannic acid 500 mg/ml, water): ~1500 µg/mL (≈ 1640 µM); stability of tannic acid solutions of the drug ([5]; tannic acid solutions, 24 hours): stable for 24 hours; effect of temperature on solubility ([5]; tannic acid solutions, 37° C. or 50° C. compared to 23° C.): no effect of temperature; solubility ([5]; water, free solubility in water, no EGCG or tannic acid): 2 to 3 µg/mL (≈ 2.19 to 3.28 µM)
CC1=C(/C=C/C(C)=C/C=C/C(C)=C/C(=O)O)C(C)(C)CCC1 [retinoic acid]				drug uptake by pig skin relative to controls (pig skin): higher levels of uptake as compared to the control formulations
O=C(OC[C@H]1O[C@@H](OC(=O)c2cc(O)c(O)c(OC(=O)c3cc(O)c(O)c(O)c3)c2)[C@H](OC(=O)c2cc(O)c(O)c(OC(=O)c3cc(O)c(O)c(O)c3)c2)[C@@H](OC(=O)c2cc(O)c(O)c(OC(=O)c3cc(O)c(O)c(O)c3)c2)[C@@H]1OC(=O)c1cc(O)c(O)c(OC(=O)c2cc(O)c(O)c(O)c2)c1)c1cc(O)c(O)c(OC(=O)c2cc(O)c(O)c(O)c2)c1 [tannic acid]				release of EGCG or Tannic acid from PLGA microspheres [1]: ~65%; solubility in PEG 300 liquid [2]: 25 % w/w

Reference: patent US11707557B2, “Compositions and devices incorporating water-insoluble therapeutic agents and methods of the use thereof” (COOK MEDICAL TECHNOLOGIES LLC, priority 2014, dated 2023)
